Among the data in PubChem BioAssay (NCI) are GI50 and TGI values, retold here.

Structures are written as SMILES. Several values for one entry are separate records, joined by “and”; a condition that tells them apart may be missing. Equal entries are not always repeated.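 Test compounds were applied to cells in 96-well plates for 48 hours at 5 doses. Abbreviation: GI50, concentration required for 50% inhibition of growth. TGI is the concentration that stops growth completely.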 Some results are limits rather than exact numbers.

Test systems include OVCAR-4 ovarian; BT-549 breast; SK-MEL-2 melanoma; RXF 393 renal; NCI-H23 lung; SK-MEL-5 melanoma; OVCAR-5 ovarian; T-47D breast; HL-60(TB) leukemia; HOP-92 NSCLC.
Holding throughout (assay): inhibition of tumour cell growth, NCI panel, 48 h

In the case of `N#Cc1nc2cc(F)c(F)cc2nc1-c1ccc(Cl)cc1`, the GI50 is above 62 µM in the test on OVCAR-4 ovarian; 19.8 µM in the test on BT-549 breast; 8.41 µM in the test with SK-MEL-2 melanoma; 6.23 µM with RXF 393 renal; 7.92 µM in the test with NCI-H23 lung; 14.4 µM with SK-MEL-5 melanoma. In addition, the GI50 is above 100 µM in the test on OVCAR-5 ovarian, 20.9 µM in the test on T-47D breast, 3.43 µM in the test on HL-60(TB) leukemia and 0.0614 µM in the test on HOP-92 NSCLC. Also, the TGI in the test on OVCAR-4 ovarian is above 100 µM; with BT-549 breast, 40.3 µM; with SK-MEL-2 melanoma, 25.5 µM; in the test on RXF 393 renal it was 18.3 µM; with NCI-H23 lung it was 33.9 µM; in the test with SK-MEL-5 melanoma, 40.6 µM. Besides, the TGI was above 100 µM with OVCAR-5 ovarian, above 62.1 µM in the test with T-47D breast, above 28.2 µM in the test with HL-60(TB) leukemia and 15 µM in the test with HOP-92 NSCLC.

As for `CNc1nc(N(C)C)nc(N(C)C)n1`, the GI50 with OVCAR-4 ovarian was > 100 µM and 431 µM; in the test with SK-MEL-2 melanoma, > 100 µM and 2150 µM; with RXF 393 renal, > 100 µM and 975 µM; in the test on NCI-H23 lung, > 100 µM and 650 µM; with SK-MEL-5 melanoma it was > 100 µM and 1130 µM; with OVCAR-5 ovarian, > 100 µM and 909 µM. Also, the GI50 was > 100 µM and 2350 µM with HL-60(TB) leukemia; > 100 µM and 277 µM in the test with HOP-92 NSCLC. Further, the TGI with OVCAR-4 ovarian is > 100 µM and 1260 µM; with BT-549 breast, 3620 µM; in the test with SK-MEL-2 melanoma it was > 100 µM and 4820 µM; in the test with RXF 393 renal, > 100 µM and 3070 µM; with NCI-H23 lung it was > 100 µM and 1830 µM; in the test with SK-MEL-5 melanoma it was > 100 µM and 2840 µM. Besides, the TGI in the test with OVCAR-5 ovarian is > 100 µM and 3960 µM; with T-47D breast, 3720 µM; with HL-60(TB) leukemia, > 100 µM and 4200 µM; in the test on HOP-92 NSCLC, > 100 µM and 809 µM.

Take `CN(C)CCNC(=O)c1cc2c3ccccc3[nH]c2c2ncccc12`: the GI50 with OVCAR-4 ovarian is 8.48 µM; with BT-549 breast, 6.36 µM; in the test with SK-MEL-2 melanoma, 9.15 µM; with RXF 393 renal it was 6.08 µM; with NCI-H23 lung it was 11.6 µM; in the test with SK-MEL-5 melanoma, 6.05 µM. Further, the GI50 in the test on OVCAR-5 ovarian is 20.6 µM; in the test on T-47D breast, 18.4 µM; in the test with HL-60(TB) leukemia it was 10.2 µM; in the test with HOP-92 NSCLC, 8.01 µM. The TGI in the test on OVCAR-4 ovarian came to 47.7 µM; in the test with BT-549 breast, 20.7 µM; in the test on SK-MEL-2 melanoma, 72.5 µM; in the test on RXF 393 renal it was 20.1 µM; with NCI-H23 lung it was 32.6 µM; with SK-MEL-5 melanoma, 20.1 µM. Further, the TGI in the test with OVCAR-5 ovarian is 68.3 µM; with T-47D breast it was above 100 µM; in the test with HL-60(TB) leukemia it was 30 µM; in the test on HOP-92 NSCLC, 40.6 µM.
